According to patent US12304912B2, “Fused bicyclic RAF inhibitors and methods for use thereof” (Jazz Pharmaceuticals Ireland Limited, priority 2020, dated 2025):
Values after ≈ are worked out from the molar mass of the structure shown. Where a name gives a salt, the structure may show the parent alone. Read-outs that look alike come from different tables or passages of the source.

What was measured:
HCT-116 cells = experiment: HCT-116 CellTiter-Glo 3D cell proliferation assay; assay type: cell-based; settings: Homo sapiens
Description: HCT-116 CellTiter-Glo 3D Cell Proliferation Assay
The human HCT-116 colorectal carcinoma cell line (ATCC CCL-247) endogenously expresses the KRAS^G13D mutation, which leads to enhanced survival and proliferative signaling. […] On the first day, HCT-116 cells were harvested, resuspended in growth medium (McCoys5A with Glutamax (Life Technologies 36600021) with 10% heat-inactivated fetal bovine serum (Sigma F9665)), and counted. Cells were plated in 100 μl per well in each well of a Corning 7007 96-well clear round bottom Ultra-Low Attachment plate (VWR 444-1020) to a final density of 1000 cells per well. Cells were seeded for pre- and post-treatment readouts. The cells were then incubated at 37° C. and 5% CO2 for 3 days (72 hours) to allow spheroid formation. After 72 hours, the plate seeded for a pre-treatment read was removed from the incubator to allow equilibration to room temperature for 30 minutes, before CellTitre-Glo® reagent was added to each well. The plates were incubated at room temperature for 5 minutes shaking at 300 rpm, followed by an incubation of 25 minutes on the benchtop before being read on the Envision reader (Perkin Elmer) as described below. On the same day, the cells plated for the post-treatment readout were dosed with compounds to produce a 9-point dose response, where the top concentration was 15 μM and following concentrations were at 1/2 log dilution intervals. These cells were subsequently incubated at 37° C. and 5% CO2 for another 4 days (96 hours). After 4 days, the plate was removed from the incubator to allow equilibration to room temperature for 30 minutes and treated with CellTitre Glo® reagent as stated above. […] The CellTitre Glo® reagent lyses the cells and contains luciferin and a luciferase (Ultra-Glo™ Recombinant Luciferase), which in the presence of ATP and oxygen can produce bioluminescence from luciferin. Therefore, plates were read on an EnVision reader (Perkin Elmer) and luminescence signals were recorded. Cell proliferation was determined on 4 days after dosing relative to the pre-treatment read. All data were analyzed using the Dotmatics or GraphPad Prism software packages. Inhibition of proliferation was assessed by determination of the GI50 value, which was defined as the concentration of compound required to decrease the level of cell proliferation by 50% when compared to DMSO control.

WiDr cells = experiment: WiDr CellTiter-Glo 3D cell proliferation assay; assay type: cell-based; settings: Homo sapiens, read-out: 3D WiDr pGI50 (converted)
FeSSIF solubility assay = assay type: physicochemical; settings: fed state simulated intestinal fluid (FeSSIF), thermodynamic from solid, pH 5 acetate buffer, 37° C.
Description: FeSSIF Solubility Assay 1 mL of fed state simulated intestinal fluid (FeSSIF), prepared using FaSSIF/FeSSIF/FaSSGF powder (Biorelevant.com) and pH 5 acetate buffer, was added to 1.0 mg of compound and then incubated for 24 h (Bioshake iQ, 650 rpm, 37° C.). Following filtration under positive pressure, the concentration of compound in solution was assessed by LC-UV in comparison to the response for a calibration standard of known concentration (250 μM). FeSSIF solubility results are described in Tables 1-2.

[1] = Solubility (Sol), medium not stated; assay type: physicochemical; settings: cells not marked (FESSIF)
[2] = HCT-116, HCT116 cells, 3D proliferation, read-out: 3D HCT116 pGI50 (converted)

Compound | GI50 (HCT-116 cells; [2]) | GI50 (WiDr cells; WiDr cells, 3D proliferation) | solubility thermodynamic at 24 h (FeSSIF solubility assay; read-out: FESSIF Sol) | Sol [1] | also measured
O=C1CCc2c(Oc3ccc4c(c3)CC(c3nc(-c5cncc(C(F)F)c5)c[nH]3)CO4)ccnc2N1 (centres unmarked) [Compound 105, 5-[3-[4-[5-(difluoromethyl)-3-pyridyl]-1H-imidazol-2-yl]chroman-6-yl]oxy-3,4-dihydro-1H-1,8-naphthyridin-2-one] | 245 nM | 603 nM | 8.6 µg/mL (≈ 17.6 µM) |  | 
O=C1CCc2c(Oc3ccc4c(c3)CC(c3nc5cc(Cl)ccc5[nH]3)CO4)ccnc2N1 (centres unmarked) [Compound 25] |  |  |  |  | solubility thermodynamic at 24 h (FeSSIF solubility assay; read-out: Sol (FESSIF)): 1.8 µg/mL (≈ 4.03 µM)
O=C(Nc1cc(Oc2ccc3c(c2)CC(c2nc(-c4ccccc4)c[nH]2)CO3)ncn1)C1CC1 (centres unmarked) [Compound 151, N-[6-[3-(4-phenyl-1H-imidazol-2-yl)chroman-6-yl]oxypyrimidin-4-yl]cyclopropanecarboxamide] |  |  | 86.6 µg/mL (≈ 191 µM) |  | GI50 (HCT-116 cells; HCT-116, read-out: 3D HCT116 pGI50 (converted)): 380 nM; GI50 (WiDr cells; WiDr): 1150 nM
COc1csc(-c2c[nH]c(C3COc4ccc(Oc5ccnc6c5CCC(=O)N6)cc4C3)n2)c1 (centres unmarked) [Compound 122, 5-[3-[5-(4-methoxy-2-thienyl)-1H-imidazol-2-yl]chroman-6-yl]oxy-3,4-dihydro-1H-1,8-naphthyridin-2-one] | 182 nM | 513 nM | 124 µg/mL (≈ 260 µM) |  | 
O=C(Nc1cc(Oc2ccc3c(c2)CC(c2nc(-c4ccccc4)c[nH]2)CO3)ccn1)C1CC(F)(F)C1 (centres unmarked) [Compound 139] |  |  | 107 µg/mL (≈ 212 µM) |  | 
O=C1CCc2c(Oc3ccc4c(c3)CC(c3nc(-c5ccc(C(F)(F)F)nc5)c[nH]3)CO4)ccnc2N1 (centres unmarked) [Compound 127, 5-[3-[4-[6-(trifluoromethyl)-3-pyridyl]-1H-imidazol-2-yl]chroman-6-yl]oxy-3,4-dihydro-1H-1,8-naphthyridin-2-one] |  |  | 6 µg/mL (≈ 11.8 µM) |  | 
O=C1CCc2c(Oc3ccc4c(c3)CC(c3nc5cc(C(F)(F)F)ccc5[nH]3)CO4)ccnc2N1 (centres unmarked) [Compound 22, 5-[3-[6-(trifluoromethyl)-1H-benzimidazol-2-yl]chroman-6-yl]oxy-3,4-dihydro-1H-1,8-naphthyridin-2-one] |  |  |  | <1.2 mg/L | 
O=C1CCc2c(Oc3ccc4c(c3)CC(c3nc5cc(F)c(F)cc5[nH]3)CO4)ccnc2N1 (centres unmarked) [Compound 23] |  |  |  | <1.1 mg/L | 
Cn1ncc2ccc(-c3c[nH]c(C4COc5ccc(Oc6ccnc7c6CCC(=O)N7)cc5C4)n3)cc21 (centres unmarked) [Compound 130, 5-[3-[4-(1-methylindazol-6-yl)-1H-imidazol-2-yl]chroman-6-yl]oxy-3,4-dihydro-1H-1,8-naphthyridin-2-one] | 617 nM | 1660 nM |  |  | 
O=C1CCc2c(Oc3ccc4c(c3)CN(C(=O)Nc3ccc(C(F)(F)F)cc3)CC4)ccnc2N1 [Compound 47] |  |  |  |  | solubility thermodynamic at 24 h (FeSSIF solubility assay; read-out: Sol (FESSIF)): 27.5 µg/mL (≈ 57 µM)
CCc1cc(-c2c[nH]c(C3COc4ccc(Oc5ccnc6c5CCC(=O)N6)cc4C3)n2)n(C2CC2)n1 (centres unmarked) [Compound 113, 5-[3-[4-(2-cyclopropyl-5-ethyl-pyrazol-3-yl)-1H-imidazol-2-yl]chroman-6-yl]oxy-3,4-dihydro-1H-1,8-naphthyridin-2-one] |  |  | 140 µg/mL (≈ 281 µM) |  | 
O=C1CCc2c(Oc3ccc4c(c3)CN(c3nc(-c5ccccc5)n[nH]3)CC4)ccnc2N1 [Compound 44, 5-[[2-(3-phenyl-1H-1,2,4-triazol-5-yl)-3,4-dihydro-1H-isoquinolin-7-yl]oxy]-3,4-dihydro-1H-1,8-naphthyridin-2-one hydrochloride] |  |  |  | <1.2 mg/L | 
Cc1cc(-c2c[nH]c(C3COc4ccc(Oc5ccnc6c5CCC(=O)N6)cc4C3)n2)n(CC(F)(F)F)n1 (centres unmarked) [Compound 126, 5-[3-[4-[5-methyl-2-(2,2,2-trifluoroethyl)pyrazol-3-yl]-1H-imidazol-2-yl]chroman-6-yl]oxy-3,4-dihydro-1H-1,8-naphthyridin-2-one] |  | 15100 nM | < 1.3 µg/mL |  | 
N#Cc1ccc2[nH]c(C3COc4ccc(Oc5ccnc6c5CCC(=O)N6)cc4C3)nc2c1 (centres unmarked) [Compound 24] |  |  |  | <1.1 mg/L | 
Cc1cc(-c2c[nH]c(C3COc4ccc(Oc5ccnc6c5CCC(=O)N6)cc4C3)n2)n(C2CC2)n1 (centres unmarked) [Compound 114, 5-[3-[4-(2-cyclopropyl-5-methyl-pyrazol-3-yl)-1H-imidazol-2-yl]chroman-6-yl]oxy-3,4-dihydro-1H-1,8-naphthyridin-2-one] |  |  | 497 µg/mL (≈ 1030 µM) |  | 
O=C1CCc2c(Oc3ccc4c(c3)CN(C(=O)Nc3cccc(C(F)(F)F)c3)CC4)ccnc2N1 [Compound 50] |  |  |  | <1.2 mg/L | 
O=C1CCc2c(Oc3ccc4c(c3)CC(c3nc5cc(C(F)(F)F)ncc5[nH]3)CO4)ccnc2N1 (racemic) [Compound 32] |  |  |  | <1.2 mg/L | 
c1ccc(-c2c[nH]c(C3COc4ccc(Oc5ccnc(Nc6ccccn6)c5)cc4C3)n2)cc1 (centres unmarked) [Compound 140, 4-[3-(4-phenyl-1H-imidazol-2-yl)chroman-6-yl]oxy-N-(2-pyridyl)pyridin-2-amine] | 1320 nM | 1910 nM |  |  | 
O=C(Nc1cc(Oc2ccc3c(c2)CC(c2nc(-c4ccccc4)c[nH]2)CO3)ccn1)C1CC1 (centres unmarked) [Compound 45, N-[4-[3-(4-phenyl-1H-imidazol-2-yl)chroman-6-yl]oxy-2-pyridyl]cyclopropanecarboxamide] |  |  |  | <1.2 mg/L | 
COc1cc(-c2c[nH]c(C3COc4ccc(Oc5ccnc6c5CCC(=O)N6)cc4C3)n2)ccn1 (centres unmarked) [Compound 19, 5-[3-[4-(2-methoxy-4-pyridyl)-1H-imidazol-2-yl]chroman-6-yl]oxy-3,4-dihydro-1H-1,8-naphthyridin-2-one] |  |  |  |  | solubility thermodynamic at 24 h (FeSSIF solubility assay; read-out: Sol (FESSIF)): 19.6 µg/mL (≈ 41.7 µM)
CN(C)c1ccc2[nH]c(C3COc4ccc(Oc5ccnc6c5CCC(=O)N6)cc4C3)nc2c1 (centres unmarked) [Compound 26] |  |  |  | <1.1 mg/L | 
Cc1cc(-c2c[nH]c(C3COc4ccc(Oc5ccnc6c5CCC(=O)N6)cc4C3)n2)n(C(C)C)n1 (centres unmarked) [Compound 112, 5-[3-[4-(2-isopropyl-5-methyl-pyrazol-3-yl)-1H-imidazol-2-yl]chroman-6-yl]oxy-3,4-dihydro-1H-1,8-naphthyridin-2-one] |  |  | 51.1 µg/mL (≈ 105 µM) |  | 
O=C1CCc2c(Oc3ccc4c(c3)CC(c3nc5ccncc5[nH]3)CO4)ccnc2N1 (centres unmarked) [Compound 134, 5-[3-(3H-imidazo[4,5-c]pyridin-2-yl)chroman-6-yl]oxy-3,4-dihydro-1H-1,8-naphthyridin-2-one] | 15100 nM | 25700 nM |  |  | 
O=C1CCc2c(Oc3ccc4c(c3)CC(c3nc(-c5cccnc5C(F)(F)F)c[nH]3)CO4)ccnc2N1 (centres unmarked) [Compound 128, 5-[3-[4-[2-(trifluoromethyl)-3-pyridyl]-1H-imidazol-2-yl]chroman-6-yl]oxy-3,4-dihydro-1H-1,8-naphthyridin-2-one] |  |  | 1.6 µg/mL (≈ 3.15 µM) |  | 
O=C1CCc2c(Oc3ccc4c(c3)CC(c3nc(-c5cccc(C(F)(F)F)c5)c[nH]3)CO4)ccnc2N1 (centres unmarked) [Compound 12, 5-[3-[4-[3-(trifluoromethyl)phenyl]-1H-imidazol-2-yl]chroman-6-yl]oxy-3,4-dihydro-1H-1,8-naphthyridin-2-one] |  |  |  | <1.3 mg/L | 
Cn1nc(C(F)(F)F)cc1-c1c[nH]c(C2COc3ccc(Oc4ccnc5c4CCC(=O)N5)cc3C2)n1 (centres unmarked) [Compound 107, 5-[3-[4-[2-methyl-5-(trifluoromethyl)pyrazol-3-yl]-1H-imidazol-2-yl]chroman-6-yl]oxy-3,4-dihydro-1H-1,8-naphthyridin-2-one] | 229 nM | 776 nM |  |  | 
O=C(CN1CC[C@@H](O)C1)Nc1cc(Oc2ccc3c(c2)CC(c2nc(-c4ccccc4)c[nH]2)CO3)ccn1 (some centres unmarked) [Compound 145] | 479 nM | 6310 nM |  |  | 
Cc1cc2nc(C3COc4ccc(Oc5ccnc6c5CCC(=O)N6)cc4C3)[nH]c2cc1C (centres unmarked) [Compound 29] |  |  |  | <1.1 mg/L | 
COc1cc(-c2c[nH]c(C3COc4ccc(Oc5ccnc6c5CCC(=O)N6)cc4C3)n2)ccn1 (centres unmarked) [Compound 104] | 447 nM | 1150 nM |  |  | 
CCc1cc(-c2c[nH]c(C3COc4ccc(Oc5ccnc6c5CCC(=O)N6)cc4C3)n2)ccn1 (centres unmarked) [Compound 118, 5-[3-[4-(2-ethyl-4-pyridyl)-1H-imidazol-2-yl]chroman-6-yl]oxy-3,4-dihydro-1H-1,8-naphthyridin-2-one] | 398 nM | 1170 nM |  |  | 
